Test system: Rattus norvegicus
Assay: Antinociceptive activity in non-injured Sprague-Dawley rat model assessed as paw withdrawal latency at 10 ug/5 uL administered intrathecal after 5 mins by radiant heat assay relative to vehicle-treated control
Type: functional

CCC(=O)N(CC1CCCCN1[C@@H](Cc1ccccc1)C(=O)NCC(=O)N[C@H](C)C(=O)N[C@@H](Cc1c(C)cc(O)cc1C)C(=O)O)c1ccccc1 (stereo partly specified)
Activity: 63%
